Results: patent US6861448B2, “NAD synthetase inhibitors and uses thereof” (priority 1998, dated 2005)
≈ marks a conversion by molar mass, not a printed value. Where “and” joins values, the source holds several entries; their conditions need not be identical. Equal values may be shown once. Read-outs that look alike come from different tables or passages of the source.

Assays:
[1] = system: B. subtilis; assay: microbe, parasite or virus in culture; type: cell-based; settings: multiple values = two or more tests; for MIC: Bacillus subtilis, read-out: Minimal Inhibitory Concentration (MIC), B. subtilis
[2] = system: S. aureus (MCR); assay: microbe, parasite or virus in culture; type: cell-based; settings: for Minimal Inhibitory Concentration (MIC), S. aureus (MCR): multiple values = two or more tests; for MIC: Staphylococcus aureus, read-out: Minimal Inhibitory Concentration (MIC), S. aureus (MCR), multiple values = two or more tests
[3] = system: Bacillus anthracis Sterne 34F2; assay: microbe, parasite or virus in culture; type: cell-based; settings: for MIC: Bacillus anthracis
[4] = molecular target: NAD synthetase (Bacillus subtilis, UniProt P08164); assay: NAD synthetase coupled enzyme assay; type: biochemical
Sequence of NAD synthetase (P08164 whole entry): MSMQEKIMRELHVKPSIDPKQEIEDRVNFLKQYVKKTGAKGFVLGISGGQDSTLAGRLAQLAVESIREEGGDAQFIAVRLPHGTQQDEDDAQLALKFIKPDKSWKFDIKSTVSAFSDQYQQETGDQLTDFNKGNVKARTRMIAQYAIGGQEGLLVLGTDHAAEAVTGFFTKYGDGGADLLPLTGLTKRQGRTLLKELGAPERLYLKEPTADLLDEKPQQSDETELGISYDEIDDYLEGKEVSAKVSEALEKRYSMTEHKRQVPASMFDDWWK
Text: This Example illustrates the NAD synthetase enzyme inhibiting activity of some compounds of the present invention. [drawing 48] The coupled assay—production of NAD was monitored through conversion to NADH by alcohol dehydrogenase. [NADH] was monitored by 2 parallel methods: the change in absorbance at 340 nm, and fluorescence at 460 nm (excitation 320 nm). […] Controls were included for determining inhibitor background, precipitation, and ADH inhibition.

[5] = system: C. albicans; assay: MIC test, fungal growth inhibition; type: cell-based; settings: in vitro
Procedure: (§1) The MIC test procedures conformed to the present protocol from the National Committee for Clinical Laboratory Standards (NCCLS), and were designed to provide basic antimicrobial data on compounds based on the MIC of the active component.
(§2) The test compounds were solubilized, diluted, and pipetted in duplicate into 10 mL sterile culture tubes and dried under vacuum.
(§3) Challenge organisms, specified were grown overnight at 37° C. in the appropriate medium (i.e., Mueller-Hinton Broth). These pure broth cultures were diluted 1:1,000 and 2.0 mL were added to the test compound tubes.
(§4) Appropriate media controls, challenge organism viability controls, and antibiotic control dilutions (i.e., ampicillin and nystatin), were prepared in the same manner as the test compounds and run against the challenge organisms.

[6] = system: A. niger; assay: MIC test, fungal growth inhibition; type: cell-based; settings: in vitro
Procedure: (§5) Antimicrobial Testing (P. aeruginosa, E. coli, B. subtilis, S. aureus, S. aureus (MCR), A. niger and M. flavescens.)
as §1, §2, §3, §4

[7] = system: E. coli; assay: MIC test (NCCLS broth dilution), growth inhibition; type: cell-based; settings: in vitro; for MIC: Escherichia coli, read-out: Potency to inhibit growth, E. coli (MIC)
Procedure: as §5, §2, §3, §4

[8] = system: P aeruginosa; assay: MIC test (NCCLS broth dilution), growth inhibition; type: cell-based; settings: in vitro; for MIC: Pseudomonas aeruginosa, read-out: Potency to inhibit growth, P aeruginosa (MIC)
Procedure: as §5, §2, §3, §4

[9] = system: S. aureus; assay: microbe, parasite or virus in culture; type: cell-based; settings: multiple values = two or more tests; for MIC: Staphylococcus aureus, read-out: Minimal Inhibitory Concentration (MIC), S. aureus
[10] = system: M. flavescens; assay: microbe, parasite or virus in culture; type: cell-based
[11] = system: rabbit primary renal cells (RPRC); assay: Cytotoxicity in rabbit primary renal cells (annexin V / PI flow cytometry); type: cell-based; settings: 24 hr, mean ± SEM; for % CELLULAR NECROSIS (RPRC): at 300 μM; for % APOPTOSIS (RPRC): at peak effect (30 μM)
Procedure: Cytotoxicity in Rabbit Primary Renal Cells
Isolation of Proximal Tubules and Culture Conditions
Rabbit renal proximal tubules were isolated using the iron oxide perfusion method and grown in 35-mm tissue culture dishes under improved conditions. The cell culture medium was a 1:1 mixture of DMEM/Ham's F-12 (without D-glucose, phenol red, or sodium pyruvate) supplemented with 15 mM HEPES buffer, 2.5 mM L-gluatmine, 1 μM pyridoxine HCL, 15 mM sodium bicarbonate, and 6 mM lactate. Hydrocortisone (50 nM), selenium (5 ng/mL), human transferrin (5 μg/mL), bovine insulin (10 nM) and L-ascorbic acid-2-phosphate (50 μM) were added to fresh culture medium immediately prior to daily media change.
All numbered compounds were diluted in methanol and the final concentration of methanol in RPRC was less then 0.1% (v/v).
Measurement of RPRC Death
Cell death was monitored in RPRC by assessment of both annexin V and PI staining using flow cytometry. Briefly, RPRC were exposed to the indicated concentrations of compounds for 24 hr. Media was removed and RPRC washed twice with phosphate-buffered saline (PBS) and incubated in a binding buffer (10 mM HEPES, 140 mM NaCL, 5 mM KCL, 1 mM MgCl2, 1.8 mM CaCl2, pH=7.4) containing annexin V-FITC (1 μmol) and PI (25 μg/mL). After a 10 min incubation, RPRC were washed three times in the binding buffer and were released from the monolayers by gentle scrapping with a rubber policeman. Annexin V and PI staining were measured using a BectonDickson FacsCalibur flow cytometer (San Jose, Calif.). An equal number of cells (10,000) were counted for sample and apoptotic cells were defined as those that stained positive for annexin V-FITC only. RPRC undergoing necrotic cell death stained for PI only.
RPRC isolated from one rabbit represented one experiment (n=1). Data were analyzed and are reported as means±standard error of the mean of at least 3 separate experiments.

[12] = NAD synthetase 2.0 μg/mL, 0.1 mM NaAD, 0.2 mM ATP, pH 8.5
[13] = STERNE34F2, read-out: approximate MIC, B. anthracis (first value)
[14] = STERNE34F2, read-out: approximate MIC, B. anthracis (second value)

Cl.N=C(N)N[C@H](COCCCCCCCCOc1ccc(OCc2ccccc2)cc1)Cc1ccccc1 [Compound 1685]
Minimal Inhibitory Concentration (MIC), B. subtilis [1]: <3.13 µg/mL
Minimal Inhibitory Concentration (MIC), S. aureus (MCR) [2]: <0.78 µg/mL
approximate MIC, B. anthracis (first value) ([3]; first value of cell, standard broth dilution assay using bacterial growth media (order assumed)): 4; 4 μg/mL
approximate MIC, B. anthracis (second value) ([3]; second value of cell, visual turbidity, bacteria cultured in mammalian cell culture media (order assumed)): 4; 4 μg/mL
IC50 [4, 12]: 9.9 µM

C[C@@H]1[C@H](O)[C@@H](C)/C=C/C=C/C=C/C=C/C=C/C=C/C=C/[C@H](O[C@@H]2O[C@H](C)[C@@H](O)[C@H](N)[C@@H]2O)C[C@@H]2O[C@](O)(C[C@@H](O)C[C@@H](O)[C@H](O)CC[C@@H](O)C[C@@H](O)CC(=O)O[C@H]1C)C[C@H](O)[C@H]2C(=O)O [Amphotericin B, reference compound]
Potency to inhibit growth, C. albicans (MIC) [5]: <1.56 µg/mL
Potency to inhibit growth, A. niger (MIC) [6]: <1.56 µg/mL

C[N+](C)(C)[C@@H](Cc1ccccc1)C(=O)NCCCCCCCCOc1ccc2c(c1)C(=O)CC(c1ccccc1)O2.[I-] (some centres unmarked) [Compound 1450]
Potency to inhibit growth, E. coli (MIC) [7]: >50 µg/mL
Potency to inhibit growth, P aeruginosa (MIC) [8]: >50 µg/mL
Potency to inhibit growth, C. albicans (MIC) [5]: <6.25 µg/mL
Potency to inhibit growth, A. niger (MIC) [6]: >50 µg/mL
Minimal Inhibitory Concentration (MIC), B. subtilis [1]: <3.13 µg/mL
Minimal Inhibitory Concentration (MIC), S. aureus [9]: <3.13 µg/mL
Minimal Inhibitory Concentration (MIC), S. aureus (MCR) [2]: <3.13 µg/mL
Minimal Inhibitory Concentration (MIC), M. flavescens [10]: <3.13 µg/mL
IC50 [4, 12]: 31.7 µM

C[C@H]1c2cccc(O)c2C(=O)C2=C(O)[C@]3(O)C(=O)C(C(N)=O)=C(O)[C@@H](N(C)C)[C@@H]3[C@@H](O)[C@@H]21 [Doxycycline, reference compound]
MIC [7]: < 1.56 µg/mL
MIC [8]: < 30 µg/mL
MIC [1]: < 1.56 µg/mL
MIC [9]: < 1.56 µg/mL
MIC [2]: < 30 µg/mL

C[N+](C)(C)C.[I-] [TMAI, tetramethylammonium iodide, reference compound]
% CELLULAR NECROSIS (RPRC) [11]: 2 ± 1%
% APOPTOSIS (RPRC) [11]: 5 ± 1%

C[N+](C)(C)C(Cc1ccccc1)C(=O)NCCCCCCCCOc1ccc(OC(=O)c2cccc(Cl)c2)cc1 (centres unmarked) [Compound 1594]
MIC [1]: > 50 µg/mL
MIC [2]: < 6.25 µg/mL
MIC [3, 13]: 8 µg/mL
MIC [3, 14]: 32 µg/mL
% CELLULAR NECROSIS (RPRC) [11]: 29 ± 4%
% APOPTOSIS (RPRC) [11]: 13 ± 2%
IC50 [4, 12]: 25 µM

CN(C)c1ccc(C(=O)Oc2ccc(OCCCCCCCCOC(=O)C(Cc3ccccc3)[N+](C)(C)C)cc2)cc1 (centres unmarked) [Compound 1484]
MIC [1]: < 3.13 µg/mL
MIC [2]: < 0.78 µg/mL
IC50 [4, 12]: 14.8 µM

C[N+](C)(C)[C@@H](Cc1ccccc1)C(=O)NCCCCCCCCn1ccc2cc(OCc3ccccc3)ccc21.[I-] [Compound 1447]
Potency to inhibit growth, E. coli (MIC) [7]: >50: <50 μg/mL
Potency to inhibit growth, P aeruginosa (MIC) [8]: >50; >50 μg/mL
Potency to inhibit growth, C. albicans (MIC) [5]: < 6.25 µg/mL and < 3.13 µg/mL
Potency to inhibit growth, A. niger (MIC) [6]: >50; >50 μg/mL
Minimal Inhibitory Concentration (MIC), B. subtilis [1]: <1.56 µg/mL and <0.78 µg/mL
Minimal Inhibitory Concentration (MIC), S. aureus [9]: <1.56; μg/mL and <0.78 μg/mL
Minimal Inhibitory Concentration (MIC), S. aureus (MCR) [2]: <1.56; μg/mL and <1.56 μg/mL
Minimal Inhibitory Concentration (MIC), M. flavescens [10]: <6.25 µg/mL
IC50 [4, 12]: 22.1 µM

COc1cccc(COc2ccc(OCCCCCCCCNC(=O)[C@H](Cc3ccccc3)[N+](C)(C)C)cc2)c1.[I-] [Compound 1423]
Potency to inhibit growth, E. coli (MIC) [7]: >50 µg/mL
Potency to inhibit growth, P aeruginosa (MIC) [8]: >50 µg/mL
Potency to inhibit growth, C. albicans (MIC) [5]: <3.13 µg/mL
Potency to inhibit growth, A. niger (MIC) [6]: <50 µg/mL
Minimal Inhibitory Concentration (MIC), B. subtilis [1]: <0.20 µg/mL
Minimal Inhibitory Concentration (MIC), S. aureus [9]: <1.56 µg/mL
Minimal Inhibitory Concentration (MIC), S. aureus (MCR) [2]: <1.56 µg/mL
IC50 [4, 12]: 32.9 µM

C[N+](C)(C)C(Cc1c[nH]c2ccccc12)C(=O)OCCCCCCCn1ccc2cc(OCc3ccccc3)ccc21 (centres unmarked) [Compound 1505]
MIC [1]: < 0.78 µg/mL
MIC [2]: < 0.78 µg/mL
IC50 [4, 12]: 6.6 µM

C[N+](C)(C)C(Cc1ccccc1)C(=O)NCCCCCCCCOc1ccc(OC(=O)c2cc(F)cc(F)c2F)cc1 (centres unmarked) [Compound 1617]
MIC [1]: < 12.5 µg/mL
MIC [2]: < 6.25 µg/mL
MIC [3, 13]: 16 µg/mL
% CELLULAR NECROSIS (RPRC) [11]: 18 ± 2%
% APOPTOSIS (RPRC) [11]: 23 ± 3%
IC50 [4, 12]: 31.4 µM

N=C(N)N[C@@H](Cc1ccccc1)C(=O)NCCCCCCCCOc1ccc(OCc2ccccc2)cc1 [Compound 1503]
MIC [7]: > 50 µg/mL
MIC [8]: > 50 µg/mL
MIC ([5]; Candida albicans, read-out: Potency to inhibit growth, C. albicans (MIC)): > 50 µg/mL
MIC ([6]; Aspergillus niger, read-out: Potency to inhibit growth, A. niger (MIC)): > 50 µg/mL
MIC [9]: < 0.78 µg/mL
MIC [2]: < 0.78 µg/mL
Minimal Inhibitory Concentration (MIC), S. aureus (MCR) [2]: <1.56 µg/mL
MIC [3, 13]: 8 µg/mL (≈ 15.5 µM)
MIC [3, 14]: 16 µg/mL (≈ 31 µM)
MIC ([10]; Mycolicibacterium flavescens, read-out: Minimal Inhibitory Concentration (MIC), M. flavescens): > 50 µg/mL
IC50 [4]: 12.7 µM

C[N+](C)(C)C(Cc1ccccc1)C(=O)OCCCCCCCCOc1ccc(OCc2cccc(Cl)c2)cc1.[I-] (centres unmarked) [Compound 1391]
Minimal Inhibitory Concentration (MIC), B. subtilis [1]: <3.13 µg/mL
Minimal Inhibitory Concentration (MIC), S. aureus (MCR) [2]: <1.56 µg/mL
IC50 [4, 12]: 11.5 µM

O=C(O)c1cn(C2CC2)c2cc(N3CCNCC3)c(F)cc2c1=O [Ciprofloxacin, reference compound]
MIC [3, 13]: 0.25 µg/mL (≈ 0.754 µM)
MIC [3, 14]: 0.125 µg/mL (≈ 0.377 µM)
% CELLULAR NECROSIS (RPRC) [11]: 4 ± 1%
% APOPTOSIS (RPRC) [11]: 9 ± 3%
